Results taken from article PMC5681660, “Reduced hepatitis B and D viral entry using clinically applied drugs as novel inhibitors of the bile acid transporter NTCP” (Scientific Reports, 2017).
Counter-ions that a name gives are not always drawn. Like-named read-outs stand apart in the source and are kept apart here.

Assays:
[1] = target: T1, human NTCP (Homo sapiens, UniProt Q14973); assay: Screening fluorescent competitive Myrcludex B-FITC binding assay (96-well, 10 µM drug)
T1 sequence (Q14973 1-349): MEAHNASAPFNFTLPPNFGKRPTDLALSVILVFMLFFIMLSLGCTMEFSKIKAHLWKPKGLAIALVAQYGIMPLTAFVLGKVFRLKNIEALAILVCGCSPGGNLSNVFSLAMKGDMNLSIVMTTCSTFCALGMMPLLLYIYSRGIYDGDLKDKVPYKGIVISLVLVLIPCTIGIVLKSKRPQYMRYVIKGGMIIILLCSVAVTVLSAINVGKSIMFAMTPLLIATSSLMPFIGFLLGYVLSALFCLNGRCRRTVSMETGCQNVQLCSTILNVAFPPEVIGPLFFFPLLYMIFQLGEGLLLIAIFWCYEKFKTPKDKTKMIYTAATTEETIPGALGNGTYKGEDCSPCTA

[2] = target: T1, human NTCP; assay: Screening taurocholate uptake assay (96-well, [14C]taurocholate, 10 µM drug)
[3] = screen, 10 µM drug, Myrcludex B-FITC binding
[4] = combined ranking from functional and binding screening assays
[5] = screen, 10 µM drug, taurocholate uptake
[6] = Prestwick library screen, Myrcludex B-FITC binding, 10 µM drug
[7] = Prestwick library screen, taurocholate uptake, 10 µM drug
[8] = ranking score beside the functional and binding assay B-scores of the screen
[9] = Prestwick library screen, 10 µM drug, B-score of Myrcludex B-FITC binding
[10] = Prestwick library screen, 10 µM drug, B-score of taurocholate uptake
[11] = combined ranking from functional and binding assay B-scores

Row | B-score binding assay [1, 6] | B-score functional assay [2, 7] | Ranking score [2, 8] | B-score binding assay [1, 9] | B-score functional assay [2, 10] | Ranking score [2, 11] | Structure (SMILES) | also measured
1 | – | – | – | – | – | – | CC=CC1=C(C(=O)O)N2C(=O)[C@@H](NC(=O)[C@H](N)c3ccc(O)cc3)[C@H]2SC1 [Cefprozil] | B-score binding assay [1, 3]: -1.441; Ranking score [2, 4]: 364.678; B-score functional assay [2, 5]: 0.201
2 | -0.269 | 0.682 | 669.358 | – | – | – | NC(=O)c1cc[n+](CC2=C(C(=O)O)N3C(=O)[C@@H](NC(=O)[C@@H](c4ccccc4)S(=O)(=O)[O-])[C@H]3SC2)cc1 [Cefsulodin sodium salt] | –
3 | – | – | – | 1.253 | 0.671 | 1026.13 | Nc1nc(/C(=C/CC(=O)O)C(=O)N[C@@H]2C(=O)N3C(C(=O)O)=CCS[C@H]23)cs1 [Ceftibuten] | –
4 | -0.123 | 0.233 | 660.887 | – | – | – | CO/N=C(\C(=O)N[C@@H]1C(=O)N2C(C(=O)O)=C(COC(N)=O)CS[C@H]12)c1ccco1 [Cefuroxime sodium salt] | –
5 | 0.033 | 0.148 | 728.485 | – | – | – | Cc1ccc(-c2cc(C(F)(F)F)nn2-c2ccc(S(N)(=O)=O)cc2)cc1 [Celecoxib] | –
6 | – | – | – | 1.474 | 0.793 | 1068.26 | CCN(CC)C(=O)Nc1ccc(OCC(O)CNC(C)(C)C)c(C(C)=O)c1 (stereo not drawn) [Celiprolol HCl] | –
7 | – | – | – | – | – | – | CC(=O)OCC1=C(C(=O)O)N2C(=O)[C@@H](NC(=O)Cc3cccs3)[C@H]2SC1 [Cephalothin sodium salt] | B-score binding assay [1, 3]: 0.561; Ranking score [2, 4]: 427.172; B-score functional assay [2, 5]: -1.381
8 | 0.001 | 0.907 | 820.204 | – | – | – | O=C(O)COCCN1CCN(C(c2ccccc2)c2ccc(Cl)cc2)CC1 (stereo not drawn) [Cetirizine dihydrochloride] | –
9 | – | – | – | – | – | – | CN(C)CCN(Cc1ccc(Cl)cc1)c1ccccn1.Cl [Chloropyramine hydrochloride] | B-score binding assay [1, 3]: 2.853; Ranking score [2, 4]: 387.298; B-score functional assay [2, 5]: -2.146
10 | – | – | – | – | – | – | CCN(CC)CCCC(C)Nc1ccnc2cc(Cl)ccc12 (stereo not drawn) [Chloroquine diphosphate] | B-score binding assay [1]: 0.002; B-score functional assay [2]: 0.222; Ranking score [2]: 726.833
11 | – | – | – | 0.263 | 1.41 | 967.179 | NS(=O)(=O)c1cc2c(cc1Cl)N=CNS2(=O)=O [Chlorothiazide] | –
12 | – | – | – | 1.19 | 0.481 | 983.616 | COc1ccc(C(Cl)=C(c2ccc(OC)cc2)c2ccc(OC)cc2)cc1 [Chlorotrianisene] | –
13 | – | – | – | 1.318 | 1.245 | 1106.99 | CN(C)CCC(c1ccc(Cl)cc1)c1ccccn1 (stereo not drawn) [Chlorpheniramine maleate] | –
14 | -0.165 | 1.589 | 766.984 | – | – | – | CCCNC(=O)NS(=O)(=O)c1ccc(Cl)cc1 [Chlorpropamide] | –
15 | -0.184 | 0.429 | 661.498 | – | – | – | CN(C)CC/C=C1/c2ccccc2Sc2ccc(Cl)cc21 [Chlorprothixene hydrochloride] | –
16 | – | – | – | 1.631 | 0.776 | 1078.72 | Cc1cc(C2CCCCC2)n(O)c(=O)c1.NCCO [Ciclopirox ethanolamine] | –
17 | – | – | – | – | – | – | O=C1CCc2cc(OCCCCc3nnnn3C3CCCCC3)ccc2N1 [Cilostazol] | B-score binding assay [1, 3]: -0.418; Ranking score [2, 4]: 446.637; B-score functional assay [2, 5]: -0.174

Row | B-score binding assay [1, 6] | B-score functional assay [2, 7] | Ranking score [2, 8] | B-score binding assay [1, 9] | B-score functional assay [2, 10] | Ranking score [2, 11] | Structure (SMILES) | also measured
18 | -0.016 | 0.628 | 764.984 | – | – | – | COc1ccc(C[C@@H]2c3cc(OC)c(OC)cc3CC[N@+]2(C)CCC(=O)OCCCCCOC(=O)CC[N@@+]2(C)CCc3cc(OC)c(OC)cc3[C@H]2Cc2ccc(OC)c(OC)c2)cc1OC [Cisatracurium besylate] | –
19 | – | – | – | – | – | – | CC[C@H]1OC(=O)[C@H](C)[C@@H](O[C@H]2C[C@@](C)(OC)[C@@H](O)[C@H](C)O2)[C@H](C)[C@@H](O[C@@H]2O[C@H](C)C[C@H](N(C)C)[C@H]2O)[C@](C)(OC)C[C@@H](C)C(=O)[C@H](C)[C@@H](O)[C@]1(C)O [Clarithromycin] | B-score binding assay [1, 3]: 0.501; Ranking score [2, 4]: 370.485; B-score functional assay [2, 5]: -1.781
20 | -0.092 | 0.453 | 697.485 | – | – | – | COc1cc(N)c(Cl)cc1C(=O)NC1CCN(Cc2ccccc2)CC1 [Clebopride maleate] | –
21 | – | – | – | – | – | – | Cl.Clc1ccc(Cn2c(CN3CCCC3)nc3ccccc32)cc1 [Clemizole hydrochloride] | B-score binding assay [1, 3]: -1.618; Ranking score [2, 4]: 418.626; B-score functional assay [2, 5]: 2.268
22 | – | – | – | – | – | – | NC1CCN(c2c(F)cc3c(=O)c(C(=O)O)cn(C4CC4)c3c2Cl)C1 (stereo not drawn) [Clinafloxacin] | B-score binding assay [1, 3]: -1.253; Ranking score [2, 4]: 295.014; B-score functional assay [2, 5]: -0.349
23 | – | – | – | – | – | – | O=P(O)(O)C(Cl)(Cl)P(=O)(O)O [Clodronate] | B-score binding assay [1, 3]: -0.166; Ranking score [2, 4]: 443.089; B-score functional assay [2, 5]: -0.468
24 | – | – | – | – | – | – | CC(C)/N=c1\cc2n(-c3ccc(Cl)cc3)c3ccccc3nc-2cc1Nc1ccc(Cl)cc1 [Clofazimine] | B-score binding assay [1, 3]: -0.74; Ranking score [2, 4]: 436.188; B-score functional assay [2, 5]: -0.006
25 | – | – | – | 0.712 | 1.746 | 1068.42 | CCOC(=O)C(C)(C)Oc1ccc(Cl)cc1 [Clofibrate] | –
26 | – | – | – | 0.048 | 1.224 | 881.708 | CC(C)(Oc1ccc(Cl)cc1)C(=O)O [Clofibric acid] | –
27 | – | – | – | – | – | – | Cc1c(Cl)cccc1Nc1ncccc1C(=O)O.NCCCC[C@H](N)C(=O)O [Clonixin Lysinate] | B-score binding assay [1]: 0; B-score functional assay [2]: -1.707; Ranking score [2]: 317.248
28 | – | – | – | – | – | – | COC(=O)[C@H](c1ccccc1Cl)N1CCc2sccc2C1 [Clopidogrel] | B-score binding assay [1, 3]: -1.412; Ranking score [2, 4]: 419.199; B-score functional assay [2, 5]: 0.915
29 | -0.388 | 0.953 | 659.111 | – | – | – | Nc1cc(C(Cl)=C(Cl)Cl)c(S(N)(=O)=O)cc1S(N)(=O)=O [Clorsulon] | –
30 | – | – | – | – | – | – | C[C@]12C[C@H](O)[C@H]3[C@@H](CCC4=CC(=O)CC[C@@]43C)[C@@H]1CC[C@@H]2C(=O)CO [Corticosterone] | B-score binding assay [1, 3]: -1.468; Ranking score [2, 4]: 434.757; B-score functional assay [2, 5]: 1.754
31 | 0.369 | 0.009 | 752.137 | – | – | – | CC(=O)OCC(=O)[C@@]1(O)CC[C@H]2[C@@H]3CCC4=CC(=O)CC[C@]4(C)[C@H]3[C@@H](O)C[C@@]21C [Cortisol acetate] | –
32 | – | – | – | – | – | – | C[C@]12CCC(=O)C=C1CC[C@@H]1[C@@H]2C(=O)C[C@@]2(C)[C@H]1CC[C@]2(O)C(=O)CO [Cortisone] | B-score binding assay [1, 3]: -0.62; Ranking score [2, 4]: 405.336; B-score functional assay [2, 5]: -0.212
33 | – | – | – | 0.29 | 0.688 | 903.754 | O=C(O)c1cc(=O)c2c(OCC(O)COc3cccc4oc(C(=O)O)cc(=O)c34)cccc2o1 [Cromolyn disodium salt] | –
34 | 0.264 | -0.009 | 718.919 | – | – | – | CN(C)CCC=C1c2ccccc2C=Cc2ccccc21 [Cyclobenzaprine hydrochloride] | –

Row | Structure (SMILES) | B-score binding assay [1, 6] | B-score functional assay [2, 7] | Ranking score [2, 8] | B-score binding assay [1, 9] | B-score functional assay [2, 10] | Ranking score [2, 11] | also measured
35 | CC(=O)OCC1=C(C(=O)O)N2C(=O)[C@@H](N)[C@H]2SC1 [Cephalosporanic acid, 7-amino] | – | – | – | 0.15 | 0.531 | 845.501 | –
36 | CN1C(=O)CCS(=O)(=O)C1c1ccc(Cl)cc1 (stereo not drawn) [Chlormezanone] | – | – | – | 1.516 | 0.286 | 979.274 | –
37 | CN(C)[C@@H]1C(O)=C(C(N)=O)C(=O)[C@@]2(O)C(O)=C3C(=O)c4c(O)ccc(Cl)c4[C@@](C)(O)[C@H]3C[C@@H]12 [Chlortetracycline hydrochloride] | 0.571 | -0.045 | 738.786 | – | – | – | –
38 | O=C([O-])[C@H]1/C(=C/CO)O[C@@H]2CC(=O)N21.[K+] [Clavulanate potassium salt] | – | – | – | 2.079 | 0.008 | 886.007 | –
39 | C[N+]12CCC(CC1)C(OC(=O)C(O)(c1ccccc1)c1ccccc1)C2 (stereo not drawn) [Clidinium bromide] | – | – | – | 0.853 | 0.121 | 877.232 | –
40 | CCN(CC)CCOc1ccc(C(=C(Cl)c2ccccc2)c2ccccc2)cc1.O=C(O)CC(O)(CC(=O)O)C(=O)O [Clomiphene citrate (Z,E)] | -0.291 | 0.862 | 678.964 | – | – | – | –
41 | CN(C)CCCN1c2ccccc2CCc2ccc(Cl)cc21 [Clomipramine hydrochloride] | -0.277 | 4.061 | 759.266 | – | – | – | –
42 | Cl.Clc1ccc(C(OCCN2CCCCC2)c2ccccc2)cc1 (stereo not drawn) [Cloperastine hydrochloride] | – | – | – | 0.356 | 2.21 | 1021.61 | –
